Reference: US20060286182A1, “Synergistic cinnamon combinations and methods for enhancing insulin activity” (Abeille Pharmaceuticals, Inc., priority 2005, published 2006)

Test system: 3T3-L1 adipocytes
Experiment: Oil Red O staining of triglyceride content (lipogenesis) in differentiating 3T3-L1 adipocytes
Format: cell-based, murine
Details: for increase in triglyceride content (lipogenic/adipogenic increase) relative to the solvent control: 50 μg test material/mL, Day 0 to Day 7 of differentiation
Excerpt: The Model—The 3T3-L1 murine fibroblast model is used to study the potential effects of compounds on adipocyte differentiation and adipogenesis.
As preadipocytes, 3T3-L1 cells have a fibroblastic appearance. They replicate in culture until they form a confluent monolayer, after which cell-cell contact triggers Go/G1 growth arrest. Terminal differentiation of 3T3-L1 cells to adipocytes depends on proliferation of both pre- and postconfluent preadipocytes. Subsequent stimulation with 3-isobutyl-1-methylxanthane, dexamethasone, and high dose of insulin (MDI) for two days prompts these cells to undergo postconfluent mitotic clonal expansion, exit the cell cycle, and begin to express adipocyte-specific genes. Approximately five days after induction of differentiation, more than 90% of the cells display the characteristic lipid-filled adipocyte phenotype.
Cell culture and Treatment—The murine fibroblast cell line 3T3-L1 was obtained from the American Type Culture Collection (Manasus, Va.) and sub-cultured according to instructions from the supplier. For experiments, cells were cultured in DMEM containing 10% FBS-HI, with added 50 units penicillin/mL and 50 μg streptomycin/mL, and maintained in log phase prior to experimental setup. Cells were grown in a 5% CO2 humidified incubator at 37° C. Components of the pre-confluent medium included (1) 10% FBS/DMEM containing 4.5 g glucose/L; (2) 50 U/mL penicillin; and (3) 50 μg/mL streptomycin. Growth medium was made by adding 50 mL of heat inactivated FBS and 5 mL of penicillin/streptomycin to 500 mL DMEM. This medium was stored at 4° C. Before use, the medium was warmed to 37° C. in a water bath.
3T3-T1 cells were seeded at an initial density of about 4×10^4 cells/cm^2 in 24-well plates. For two days, the cells were allowed to grow to reach confluence. Following confluence, the cells were forced to differentiate into adipocytes by the addition of differentiation medium; this medium consisted of (1) 10% FBS/DMEM (high glucose); (2) 0.5 mM methylisobutylxanthine; (3) 0.5 μM dexamethasone and (4) 10 Hg/mL insulin. After three days, the medium was changed to post-differentiation medium consisting of 10 μg/mL insulin in 10% FBS/DMEM.
Test material was added in dimethyl sulfoxide at Day 0 of differentiation and every two days throughout the maturation phase (Day 7). Whenever fresh media was added, fresh test material was also added. As a positive control, troglitazone was added to achieve a final concentration of 4.4 μg/mL (10 μM). Metformin, Sample A and the metformin/Sample A combinations of 1:10, 1:5 and 1:2.5 were all tested at 50 μg test material/mL. Metformin, Sample B and the metformin/Sample B combination of 1:10 were all tested at 50 μg test material/mL.

In the case of `Cc1c(C)c2c(c(C)c1O)CCC(C)(COc1ccc(CC3SC(=O)NC3=O)cc1)O2` (stereo not shown) [Troglitazone, troglitazone], the “increase in triglyceride content of the 3T3-L1 cells” value (positive control, 4.4 μg/mL (10 μM), Day 0 to Day 7, relative to solvent control) is reported as 54%.
With `Cc1cnc(C(=O)NCCc2ccc(S(=O)(=O)NC(=O)NC3CCCCC3)cc2)cn1` [Glipizide] the “increase in triglyceride content (lipogenic/adipogenic increase) relative to the solvent control” value was 40% and the “increase in triglyceride content (lipogenic/adipogenic increase) relative to the solvent control” value (listed as glipizide) was “increased triglyceride biosynthesis”.
In the case of `CN(C)C(=N)N=C(N)N` [metformin], the “increase in triglyceride content (lipogenic/adipogenic increase) relative to the solvent control” value is reported as “four”.
